Laboratory results from ChEMBL document CHEMBL5303304, “EUbOPEN Chemogenomics Library - IncuCyte” (2023).

Experiments:
Format in all cases: toxicity, cell-based
HEK-293T = test: Incucyte cell viability with HEK293T; conditions: human, 10 µM, compound concentration 10 uM
Fibroblast = test: Incucyte cell viability with human fibroblast; conditions: 10 µM, compound concentration 10 uM
U2OS = test: Incucyte cell viability with U2OS; conditions: human, 10 µM, compound concentration 10 uM
Further: unitless GR value; below 1 slowed growth and below 0 cell loss.

Row | Structure (SMILES) | Growth Rate (HEK-293T; 0 h, replicate number 1) | Growth Rate (HEK-293T; 6 h, replicate number 1) | Growth Rate (HEK-293T; 6 h, replicate number 2) | Growth Rate (HEK-293T; 12 h, replicate number 1) | Growth Rate (HEK-293T; 12 h, replicate number 2) | Growth Rate (HEK-293T; 18 h, replicate number 1) | Growth Rate (HEK-293T; 18 h, replicate number 2) | Growth Rate (HEK-293T; 24 h, replicate number 1) | Growth Rate (HEK-293T; 24 h, replicate number 2) | Growth Rate (Fibroblast; 6 h, replicate number 2) | Growth Rate (Fibroblast; 18 h, replicate number 2) | Growth Rate (Fibroblast; 24 h, replicate number 2) | Growth Rate (U2OS; 0 h, replicate number 2) | Growth Rate (U2OS; 6 h, replicate number 2) | Growth Rate (U2OS; 12 h, replicate number 2) | Growth Rate (U2OS; 18 h, replicate number 1) | Growth Rate (U2OS; 18 h, replicate number 2) | Growth Rate (U2OS; 24 h, replicate number 1) | Growth Rate (U2OS; 24 h, replicate number 2) | Growth Rate (Fibroblast; 12 h, replicate number 2) | also measured
1 | Cc1nsc(Nc2cnc(C(F)(F)F)cn2)c1C(=O)Nc1ccc(O[C@H]2CCCN(CC(F)(F)F)C2)nc1 | -0.98 | -0.28 | -0.6 | -0.36 | -0.54 | -0.3 | -0.41 | -0.25 | -0.32 | -0.93 | -0.45 | -0.3 | 0.91 | 0.73 | 0.59 | 0.06 | 0.57 | 0.03 | 0.52 | – | Growth Rate (Fibroblast; 0 h, replicate number 1): -1; Growth Rate (Fibroblast; 6 h, replicate number 1): -0.21; Growth Rate (Fibroblast; 12 h, replicate number 1): -0.43; Growth Rate (Fibroblast; 18 h, replicate number 1): -0.36; Growth Rate (Fibroblast; 24 h, replicate number 1): -0.23; Growth Rate (U2OS; 6 h, replicate number 1): 0.72; Growth Rate (U2OS; 12 h, replicate number 1): 0.39
2 | O=C1N=C(NCc2cccs2)S/C1=C\c1ccc2ncccc2c1 | -0.36 | – | – | – | – | – | – | – | – | – | – | – | -0.23 | – | 0.57 | 0.78 | 0.67 | 0.64 | 0.78 | – | Growth Rate (HEK-293T; 0 h, replicate number 2): -0.64; Growth Rate (Fibroblast; 0 h, replicate number 1): -0.1; Growth Rate (Fibroblast; 6 h, replicate number 1): 0.04; Growth Rate (U2OS; 0 h, replicate number 1): 0.58; Growth Rate (U2OS; 12 h, replicate number 1): -0.76
3 | COc1cc([N+](=O)[O-])ccc1NC(=O)c1ccccc1O | – | -0.49 | -0.12 | -0.12 | -0.05 | -0.01 | -0.02 | 0.08 | -0.01 | – | 0.65 | 0.64 | -0.67 | 0.94 | 0.63 | 0.4 | 0.46 | 0.48 | 0.55 | 0.57 | Growth Rate (HEK-293T; 0 h, replicate number 2): 0.91; Growth Rate (Fibroblast; 0 h, replicate number 2): 0.04; Growth Rate (Fibroblast; 6 h, replicate number 1): -0.98; Growth Rate (U2OS; 0 h, replicate number 1): 0.1; Growth Rate (U2OS; 6 h, replicate number 1): 0.2; Growth Rate (U2OS; 12 h, replicate number 1): 0.27
4 | O=C(Nc1snnc1C(=O)Nc1ccc(N2CCCC2)cc1)c1cncc(C(F)(F)F)c1 | 0.43 | – | 0.54 | 0.99 | 0.8 | 0.92 | 0.86 | 0.91 | 0.9 | 0.26 | 0.43 | 0.59 | – | 0.89 | 0.81 | – | – | – | – | 0.11 | Growth Rate (HEK-293T; 0 h, replicate number 2): 0.78; Growth Rate (Fibroblast; 0 h, replicate number 1): -1; Growth Rate (Fibroblast; 0 h, replicate number 2): -0.64; Growth Rate (Fibroblast; 24 h, replicate number 1): 0.96; Growth Rate (U2OS; 0 h, replicate number 1): -1; Growth Rate (U2OS; 12 h, replicate number 1): -0.58
5 | Fc1ccc(-c2c3cccc(C(F)(F)F)c3nn2Cc2ccc(F)cc2Cl)cc1 [LXR-623] | 0.13 | 0.77 | 0.3 | 0.75 | 0.57 | 0.77 | 0.76 | 0.91 | 0.73 | 0.35 | -0.04 | 0.03 | 0.79 | 0.69 | 0.95 | – | 0.94 | – | 0.9 | 0.12 | Growth Rate (HEK-293T; 0 h, replicate number 2): -0.86; Growth Rate (Fibroblast; 6 h, replicate number 1): -0.18; Growth Rate (Fibroblast; 12 h, replicate number 1): -0.03; Growth Rate (Fibroblast; 18 h, replicate number 1): -0.12; Growth Rate (Fibroblast; 24 h, replicate number 1): -0.06
6 | COc1ccccc1-n1nc(C2CC(C)(C)OC(C)(C)C2)cc1-c1ccc(Cl)cc1 | – | -0.05 | -0.13 | 0.46 | 0.41 | 0.79 | 0.54 | 0.95 | 0.64 | -1 | 0.87 | – | -0.66 | 0.41 | 0.93 | 0.94 | 0.96 | 0.94 | 0.95 | 0.99 | Growth Rate (Fibroblast; 0 h, replicate number 1): -0.49; Growth Rate (Fibroblast; 18 h, replicate number 1): -0.27; Growth Rate (U2OS; 12 h, replicate number 1): 0.85
7 | C[C@H](CCOc1cccc(CC(=O)O)c1)N(Cc1cccc(C(F)(F)F)c1Cl)CC(c1ccccc1)c1ccccc1.Cl | -0.43 | – | – | – | – | – | 1 | – | – | 0.01 | 0.23 | 0.52 | -0.96 | 1 | – | 0.83 | – | 0.93 | – | 0.55 | Growth Rate (Fibroblast; 0 h, replicate number 1): 0.93; Growth Rate (Fibroblast; 6 h, replicate number 1): 0.72; Growth Rate (Fibroblast; 12 h, replicate number 1): 0.72; Growth Rate (Fibroblast; 18 h, replicate number 1): 0.83; Growth Rate (Fibroblast; 24 h, replicate number 1): 0.64; Growth Rate (U2OS; 0 h, replicate number 1): 0.53; Growth Rate (U2OS; 6 h, replicate number 1): 0.93
8 | Cc1cc(C)c(NC(=O)C2CC3CCC2C3)c(C)c1 (configuration not stated) | – | – | 0.65 | – | – | – | – | – | – | -0.52 | 0.75 | 0.97 | – | – | 0.78 | 0.75 | – | 0.83 | – | 0.78 | Growth Rate (Fibroblast; 6 h, replicate number 1): -0.94; Growth Rate (U2OS; 6 h, replicate number 1): 0.68; Growth Rate (U2OS; 12 h, replicate number 1): 0.47
9 | CCOc1ccccc1C(=O)NCC1(N2CCN(CC)CC2)CCCCC1 | 0.98 | 0.23 | -0.02 | -0.11 | 0.31 | 0.24 | 0.44 | 0.44 | 0.46 | -0.9 | – | 0.83 | -0.99 | 0.56 | 0.88 | – | 0.86 | – | 0.94 | 0.93 | Growth Rate (Fibroblast; 0 h, replicate number 1): -0.95; Growth Rate (Fibroblast; 0 h, replicate number 2): -0.98; Growth Rate (Fibroblast; 18 h, replicate number 1): -0.25; Growth Rate (Fibroblast; 24 h, replicate number 1): 0.45; Growth Rate (U2OS; 0 h, replicate number 1): -0.19
10 | O=C(Nc1ccccc1C(=O)O)c1cc(S(=O)(=O)c2ccccc2)ccc1Cl | -0.5 | 0.7 | – | 0.52 | 0.88 | 0.3 | 0.41 | 0.24 | 0.34 | – | – | – | 0.97 | – | 0.55 | 0.96 | 0.65 | 0.79 | 0.8 | – | Growth Rate (HEK-293T; 0 h, replicate number 2): -0.73; Growth Rate (Fibroblast; 0 h, replicate number 2): -0.73
